What was measured:
Assay in all cases: cells
[1] = system: NB14; type: functional, cell-based, Homo sapiens; conditions: nb14;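 further: growth inhibition of NB14 cells measured with a cell viability assay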
Description: SANGER: Inhibition of human NB14 cell growth in a cell viability assay.

[2] = system: DU-145; type: functional, cell-based, Homo sapiens; conditions: du-145
Description: SANGER: Inhibition of human DU-145 cell growth in a cell viability assay.

[3] = system: PANC-08-13; type: functional, cell-based, Homo sapiens; conditions: panc-08-13;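 further: cell growth inhibition, measured with a cell viability assay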
Description: SANGER: Inhibition of human PANC-08-13 cell growth in a cell viability assay.

[4] = system: UO-31; type: functional, cell-based, Homo sapiens; conditions: uo-31;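 further: cell viability assay measuring inhibition of cell growth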
Description: SANGER: Inhibition of human U031 cell growth in a cell viability assay.

[5] = system: SK-MEL-30; type: functional, cell-based, Homo sapiens; conditions: sk-mel-30;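 further: growth inhibition of SK-MEL-30 cells, determined with a cell viability assay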
Description: SANGER: Inhibition of human SK-MEL-30 cell growth in a cell viability assay.

[6] = system: 23132-87; type: functional, cell-based, Homo sapiens
Description: SANGER: Inhibition of human 23132-87 cell growth in a cell viability assay.

[7] = system: HMV-2 cell line; type: functional, cell-based, Homo sapiens; conditions: hmv-2;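 further: growth inhibition of HMV-II cells, read out with a cell viability assay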
Description: SANGER: Inhibition of human HMV-II cell growth in a cell viability assay.

[8] = system: HSC-4; type: functional, cell-based, Homo sapiens; conditions: hsc-4;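 further: growth inhibition of human HSC-4 cells, read out with a cell viability assay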
Description: SANGER: Inhibition of human HSC-4 cell growth in a cell viability assay.

[9] = system: ACHN; type: functional, cell-based, Homo sapiens; conditions: achn;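 further: cell viability read-out used to gauge how strongly growth of human ACHN cells is suppressed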
Description: SANGER: Inhibition of human ACHN cell growth in a cell viability assay.

[10] = system: CAMA-1; type: functional, cell-based, Homo sapiens; conditions: cama-1;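 further: growth inhibition of CAMA-1 cells, read out with a cell viability assay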
Description: SANGER: Inhibition of human CAMA-1 cell growth in a cell viability assay.

[11] = system: BT-549; type: functional, cell-based, Homo sapiens; conditions: bt-549
Description: SANGER: Inhibition of human BT-549 cell growth in a cell viability assay.

[12] = system: SW1417; type: functional, cell-based, Homo sapiens; conditions: sw1417;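 further: growth inhibition of human SW1417 cells, read out with a cell viability assay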
Description: SANGER: Inhibition of human SW1417 cell growth in a cell viability assay.

[13] = system: CAL-62; type: functional, cell-based, Homo sapiens; conditions: cal-62;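 further: growth inhibition of CAL-62 cells, read out with a cell viability assay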
Description: SANGER: Inhibition of human CAL-62 cell growth in a cell viability assay.

[14] = system: 8505C; type: functional, cell-based, Homo sapiens; conditions: 8505c
Description: SANGER: Inhibition of human 8505C cell growth in a cell viability assay.

[15] = system: HO-1-N-1; type: functional, cell-based, Homo sapiens; conditions: ho-1-n-1;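 further: growth inhibition of human HO-1-N-1 cells, read out with a cell viability assay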
Description: SANGER: Inhibition of human HO-1-N-1 cell growth in a cell viability assay.

[16] = system: NCI-H2052; type: functional, cell-based, Homo sapiens; conditions: nci-h2052;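 further: growth inhibition of NCI-H2052 cells, read out with a cell viability assay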
Description: SANGER: Inhibition of human NCI-H2052 cell growth in a cell viability assay.

[17] = system: SW1463; type: functional, cell-based, Homo sapiens; conditions: sw1463;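 further: growth inhibition of SW1463 cells, determined with a cell viability assay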
Description: SANGER: Inhibition of human SW1463 cell growth in a cell viability assay.

[18] = system: MG-63; type: functional, cell-based, Homo sapiens; conditions: mg-63;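 further: growth inhibition of human MG-63 cells, read out with a cell viability assay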
Description: SANGER: Inhibition of human MG-63 cell growth in a cell viability assay.

[19] = system: BFTC-905; type: functional, cell-based, Homo sapiens; conditions: bftc-905
Description: SANGER: Inhibition of human BFTC-905 cell growth in a cell viability assay.

[20] = system: MDA-MB-415; type: functional, cell-based, Homo sapiens; conditions: mda-mb-415
[21] = system: SK-MES-1; type: functional, cell-based, Homo sapiens; conditions: sk-mes-1;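 further: growth inhibition of human SK-MES-1 cells, read out with a cell viability assay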
Description: SANGER: Inhibition of human SK-MES-1 cell growth in a cell viability assay.

[22] = system: KYSE-450; type: functional, cell-based, Homo sapiens; conditions: kyse-450;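 further: cell growth inhibition measured by a viability assay in human KYSE-450 cells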
Description: SANGER: Inhibition of human KYSE-450 cell growth in a cell viability assay.

[23] = system: Calu-3; type: functional, cell-based, Homo sapiens; conditions: calu-3;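 further: growth inhibition of human Calu-3 cells, determined with a cell viability assay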
Description: SANGER: Inhibition of human Calu-3 cell growth in a cell viability assay.

[24] = system: A-431; type: functional, cell-based, Homo sapiens; conditions: a-431;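 further: growth inhibition of A-431 cells, determined with a cell viability read-out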
Description: SANGER: Inhibition of human A431 cell growth in a cell viability assay.

[25] = system: BCPAP; type: functional, cell-based, Homo sapiens; conditions: bcpap;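 further: growth inhibition of BCPAP cells, read out in a cell viability assay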
Description: SANGER: Inhibition of human BCPAP cell growth in a cell viability assay.

[26] = system: PC-3; type: functional, cell-based, Homo sapiens; conditions: pc-3;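 further: cell viability assay measuring growth inhibition of PC-3 cells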
Description: SANGER: Inhibition of human PC-3 cell growth in a cell viability assay.

[27] = system: MKN-7; type: functional, cell-based, Homo sapiens; conditions: mkn-7;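 further: growth inhibition of MKN-7 cells, read out with a cell viability assay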
Description: SANGER: Inhibition of human MKN7 cell growth in a cell viability assay.

[28] = system: COR-L23; type: functional, cell-based, Homo sapiens; conditions: cor-l23;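 further: cell viability assay measuring how strongly compounds suppress growth of COR-L23 cells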
Description: SANGER: Inhibition of human COR-L23 cell growth in a cell viability assay.

[29] = system: LCLC-103H cell line; type: functional, cell-based, Homo sapiens; conditions: lclc-103h
Description: SANGER: Inhibition of human LCLC-103H cell growth in a cell viability assay.

[30] = system: A673; type: functional, cell-based, Homo sapiens; conditions: a673;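 further: growth inhibition of human A673 cells, read out through a cell viability assay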
Description: SANGER: Inhibition of human A673 cell growth in a cell viability assay.

[31] = system: FaDu; type: functional, cell-based, Homo sapiens; conditions: fadu;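 further: cell viability readout of growth inhibition in FaDu cells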
Description: SANGER: Inhibition of human FADU cell growth in a cell viability assay.

[32] = system: SW13; type: functional, cell-based, Homo sapiens; conditions: sw13;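 further: IC50 is inhibition of SW13 cell growth, read out with a cell viability assay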
Description: SANGER: Inhibition of human SW13 cell growth in a cell viability assay.

[33] = system: CAL-33; type: functional, cell-based, Homo sapiens; conditions: cal-33;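 further: growth inhibition of CAL-33 cells, read out with a cell viability assay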
Description: SANGER: Inhibition of human CAL-33 cell growth in a cell viability assay.

[34] = system: MDA-MB-453; type: functional, cell-based, Homo sapiens; conditions: mda-mb-453
Description: SANGER: Inhibition of human MDA-MB-453 cell growth in a cell viability assay.

[35] = system: HuCCT-1; type: functional, cell-based, Homo sapiens, HuCCT1; conditions: hucct1;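 further: growth inhibition of HuCCT-1 cells, read out by a cell viability assay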
Description: SANGER: Inhibition of human HuCCT1 cell growth in a cell viability assay.

[36] = system: LK-2; type: functional, cell-based, Homo sapiens; conditions: lk-2;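 further: growth inhibition of LK-2 cells, read out with a viability assay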
Description: SANGER: Inhibition of human LK-2 cell growth in a cell viability assay.

[37] = system: EFM-19; type: functional, cell-based, Homo sapiens; conditions: efm-19;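 further: growth inhibition of human EFM-19 cells, measured in a cell viability assay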
Description: SANGER: Inhibition of human EFM-19 cell growth in a cell viability assay.

[38] = system: D-423MG; type: functional, cell-based, Homo sapiens; conditions: d-423mg
Description: SANGER: Inhibition of human D-423MG cell growth in a cell viability assay.

[39] = system: HCC70; type: functional, cell-based, Homo sapiens; conditions: hcc70;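 further: cell viability assay measuring how strongly the compound suppresses proliferation of HCC70 cells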
Description: SANGER: Inhibition of human HCC70 cell growth in a cell viability assay.

[40] = system: COLO-680N; type: functional, cell-based, Homo sapiens; conditions: colo-680n;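 further: cell viability assay used to measure inhibition of COLO-680N cell growth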
Description: SANGER: Inhibition of human COLO-680N cell growth in a cell viability assay.

[41] = system: NCI-H2405; type: functional, cell-based, Homo sapiens; conditions: nci-h2405;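 further: growth inhibition of the human cell line, read out with a cell viability assay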
Description: SANGER: Inhibition of human NCI-H2405 cell growth in a cell viability assay.

[42] = system: CAPAN-1; type: functional, cell-based, Homo sapiens; conditions: capan-1;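 further: growth suppression of CAPAN-1 cells, read out by a cell viability assay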
Description: SANGER: Inhibition of human CAPAN-1 cell growth in a cell viability assay.

For CISPLATIN, the IC50 [1] was 171 µM, the IC50 [2] was 11.1 µM and the IC50 [3] was 22.5 µM. For the same sequence, the IC50 [4] was 12.9 µM, the IC50 [5] was 480 µM and the IC50 [6] was 60.3 µM. The IC50 [7] was 11.2 µM, the IC50 [8] was 1.58 µM and the IC50 [9] was 8.05 µM. It also gave an IC50 [10] of 117 µM, an IC50 [11] of 14.6 µM and an IC50 [12] of 194 µM. For the same sequence, the IC50 [13] was 301 µM, the IC50 [14] was 34.6 µM and the IC50 [15] was 39.4 µM. It also gave an IC50 [16] of 166 µM, an IC50 [17] of 189 µM and an IC50 [18] of 100 µM. The IC50 [19] was 2.58 µM, the IC50 [20] was 48.4 µM and the IC50 [21] was 129 µM. It also gave an IC50 [22] of 72.8 µM, an IC50 [23] of 582 µM and an IC50 [24] of 572 µM. The IC50 [25] was 228 µM, the IC50 [26] was 96.7 µM and the IC50 [27] was 20 µM. For the same sequence, the IC50 [28] was 5.63 µM, the IC50 [29] was 28.2 µM and the IC50 [30] was 2.17 µM. For the same sequence, the IC50 [31] was 8.92 µM, the IC50 [32] was 14.3 µM and the IC50 [33] was 41.3 µM. The IC50 [34] was 25.8 µM, the IC50 [35] was 70.1 µM and the IC50 [36] was 44.3 µM. For the same sequence, the IC50 [37] was 245 µM, the IC50 [38] was 13.9 µM and the IC50 [39] was 9.92 µM. The IC50 [40] was 23.6 µM, the IC50 [41] was 22.7 µM and the IC50 [42] was 24.3 µM.

Source: ChEMBL document CHEMBL1201861, “Genomics of Drug Sensitity in Cancer screening data, Wellcome Trust Sanger Institute”
